Earlier results on four compounds are cited in US20100226886A1, “Combinations of MTP Inhibitors with Cholesterol Absorption Inhibitors or Interferon for Treating Hepatitis C” (priority 2007, published 2010).

The conditions of data set [1]: in vivo.
The conditions of data set [2]: animal model for homozygous familial hypercholesterolemia; for example at 25 mg/day.
For data set [3] the following is noted: clinical studies, 80 mg/day or greater.

“Also recorded” adds a separate entry of the source. Like-named read-outs stand apart in the source and are kept apart here.

Alpha interferon: the “side effects in patients” value in data set [1] is “multiple neuropsychiatric effects”.
`O=C(NC1CCN(CCCCC2(C(=O)NCC(F)(F)F)c3ccccc3-c3ccccc32)CC1)c1ccccc1-c1ccc(C(F)(F)F)cc1` [BMS-201038, N-(2,2,2-Trifluorethyl)-9-[4-[4-[[[4′-(trifluoromethyl) [1,1′biphenyl]-2-Yl]carbonyl]amino]-1-piperidinyl]butyl]9H-fluorene-9-carboxamide]: the adverse events result (25 mg/day) was “gastrointestinal disturbances, abnormalities in liver function, and hepatic steatosis”; the adverse events entry (25 mg/day, listed as AEGR-733) was “gastrointestinal disorders, abnormalities in liver function and/or hepatic steatosis”. In addition, in data set [2], the plasma cholesterol levels entry is “effectively reduced plasma cholesterol levels in a dose dependent manner”.
`NC(=O)c1ncn([C@@H]2O[C@H](CO)[C@@H](O)[C@H]2O)n1` [ribavirin]: the “increase of sustained response rate” value in the data set on HCV (ribavirin added to interferon or peginterferon) is recorded as “two- to three-fold”. The “effect on HCV” value with HCV (ribavirin by itself) was “little effect on HCV”. Further, the “side effects in patients” value in data set [1] is reported as “red cell haemolysis to a variable degree in almost all patients”.
With `Cc1cc(C)c2c3ccccc3n(Cc3ccc([C@@H](C(=O)N[C@H](CO)c4ccccc4)C4CCCC4)cc3)c2n1` [implitapide, (2S)-2-cyclopentyl-2-[4-[(2,4-dimethyl-9H-pyrido[2,3-b]indol-9-yl)methyl]phenyl]-N-[(1S)-2-hydroxy-1-phenylethyl]ethanamide], for the setting “80 mg/day or greater (80 mg/day and 160 mg/day)”, the adverse events result is “gastrointestinal disturbances, abnormalities in liver function, and hepatic steatosis; also recorded: gastrointestinal disorders, abnormalities in liver function and/or hepatic steatosis”. For the same compound, in data set [3], the efficacy for hypercholesterolemia entry was “therapeutically effective for hypercholesterolemia”.
